The test system of one series is P.C.A. reaction. Briefly: Passive cutaneous anaphylaxis (P.C.A.) in rats sensitized with homologous hyperimmune antiserum. The format is in vivo. Conditions: iv, rat, intravenously 30 seconds before antigen, read-out: ED50 (inhibitory effect of P.C.A. reaction). Here is the method: (b) Rat hyperimmune antiserum against egg albumin
Male Sprague-Dawley JCL strain rats were injected in the four foot pads with 10 mg of egg albumin emulsified in 0.5 ml of saline and 0.5 ml of Freund's complete adjuvant in divided portions. Seven days later, the animals were injected intramuscularly at three sites on a shaved area of their backs with a total of 5 mg of egg albumin emulsified in 0.5 ml of saline and 0.5 ml of Freund's complete adjuvant. On days 28 to 30, the animals were injected intracutaneously at two sites on the back with 0.2 mg of egg albumin in 0.2 ml of saline. The antiserum was obtained 7 days after the last injection and stored at -20° C.
(3) Passive cutaneous anaphylaxis (P.C.A.) in rats sensitized with homologous hyperimmune antiserum
P.C.A. reaction was performed in male Sprague-Dawley JCL strain rats passively sensitized with homologous hyperimmune antiserum against egg albumin. That is, 0.1 ml of the antiserum was injected into the skin on the back of rats, and 4 hours later 1 ml of mixture of egg albumin 5 mg and Evans' blue 5 mg was injected intravenously. One hour later, the animals were killed and the skin was removed. Evans' blue was then extracted from the sensitized spot with 10 ml of 4:1 mixture of aceton and 2% solution of RBS-25. The quantity of Evans' blue was determined by colorimetry at 620 mμ. The drug was given intravenously 30 seconds before dosing with antigen.

The subject of another series is histamine. The series is described as follows: Antagonistic effect on histamine in vitro (isolated guinea-pig ileum). The settings on record: histamine 1.0 × 10^-7 g/ml. As for the experimental part:
(5) Antagonistic effect on histamine in vitro
The ileum was connected to a strain gauge transducer and the contractions were recorded isometrically.

The nature of the next series: Acute toxicity in rat. Conditions: in vivo, po; female rat, orally, seven days. Here is the method:
(§1) (6) Acute toxicity in mouse and rat
(§2) Each ten male and female ICR-JCL strain mice and Sprague-Dawley-JCL strain rats were used for each dose.
(§3) Test compound was given to animals in a form of suspension in 0.5% methyl cellose orally. After administration, the incidence of the death was recorded for successive seven days. LD50 values were calculated by the method of Lichfield-Wilcoxon method.

In series [1] the test system is anaphylactic bronchoconstriction. Briefly: Anaphylactic bronchoconstriction in guinea-pigs sensitized with homologous antiserum. It counts as in vivo. Conditions: Cavia porcellus, iv; guinea-pig; intravenously 30 seconds before antigen. As for the experimental part:
(c) Guinea-pig antiserum against egg albumin
Five mg of egg albumin emulsified in 0.5 ml of physiological saline and 0.5 ml of Freund's incomplete adjuvant was used as the antigen.
The emulsion was given subcutaneously in a single dose of 1 ml divided equally (0.25 ml) to the four foot pads of male Hartly strain guinea pigs, each weighing 250 to 300 g. Starting two weeks after dosing with the aforementioned emulsion 0.1% egg albumin emulsified in physiological saline was given subcutaneously in equally divided (0.1 ml) doses of 0.4 ml once a week for 4 weeks to four sites on the backs of the test animals. Blood samples were collected from the carotid artery one week after the last injection, and centrifuged at 3000 r.p.m. at room temperature for 15 minutes. The antisera thus obtained were stored at -20° C.
(4) Anaphylactic bronchoconstriction in guinea-pigs sensitized with homologous antiserum
Male Hartly strain guinea-pigs were sensitized with an intravenous injection of 1 ml of homologous antiserum against egg albumin. And 48 hours later, the animals were immobilized with an intraperitoneal dose of 100 mg/kg of gallamine. The trachea was cannulated for artificial respiration which was performed with a miniature respiratory pump (3 ml/stroke, 60 strokes/minute). […]

The nature of the next series: Acute toxicity in mouse. The settings on record: in vivo, po; female mouse, orally, seven days. As for the experimental part: as §1, §2, §3
In series [2] the test system is passive cutaneous anaphylaxis (P.C.A.). The series is described as follows: Antagonism to passive cutaneous anaphylaxis (P.C.A.) in rat sensitized with homologous reaginic antiserum. It counts as in vivo. The settings on record: test compound given orally 2 hours and intravenously 5 minutes before antigen. Here is the method: (a) Rat reaginic antiserum against egg albumin
One mg of egg albumin emulsified in 0.5 ml of B. pertussisdiphtheria mixed vaccine (Tanabe Seiyaku Company Ltd.) and 0.5 ml of Freund's incomplete adjuvant (Difco) was used as the antigen. The emulsion was given subcutaneously in a single dose of 1 ml divided equally (0.25 ml) to the four foot pads of male Sprague-Dawley JCL strain rats aged 6 weeks, each weighing 170-220 g. Blood samples were collected from the femoral artery 12 days after injection, and centrifuged at 3000 r.p.m. at 4° C. for 15 minutes. The antisera thus obtained were stored at -20° C.
(2) Antagonism to passive cutaneous anaphylaxis (P.C.A.) in rat sensitized with homologous reaginic antiserum
Ten male Sprague-Dawley-JCL strain rats, weighing 290-310 g were used for each dose. The rat reaginic antiserum against egg albumin was used at a dilution 1:4. The animals were sensitized with 0.1 ml of the antiserum injected intracutaneously on the depilated backs of the rats. […] It was further centrifuged at 2000 r.p.m. for 15 minutes and the quantity of the dye in the supernatant solution was determined by colorimetry at 620 mμ. […] The inhibitory effect of test compound was determined from the dye amounts measured in comparison with the control group and the treated group and the ED50 value was calculated according to Litchfield-Wilcoxon method.

Four molecules from patent US4279909A, “Antiallergic method” (Fujisawa Pharmaceutical Co., Ltd., priority 1980, dated 1981) can be followed below.

Structures are written as SMILES. Structures can show the parent of a compound that is named as a salt.

On to `O=C(Cn1c(=O)sc2ccc(Cl)cc21)N1CCC(O)CC1` [Compound C, 3-(4-hydroxypiperidino)carbonylmethyl-5-chloro-2-benzothiazolinone], for which the ED50 with P.C.A. reaction worked out at 32 mg/kg.

Consider `O=C(Cn1c(=O)sc2ccc(Cl)cc21)N1CCN(CCO)CC1` [Compound B, 3-[4-(2-hydroxyethyl)-1-piperazinylcarbonylmethyl]-5-chloro-2-benzothiazolinone hydrochloride], for which the 50% effective dose (ED50) in the series with P.C.A. reaction amounted to 28 mg/kg.

Regarding `O=C(O)c1cc(=O)c2c(OCC(O)COc3cccc4oc(C(=O)O)cc(=O)c34)cccc2o1` [Compound D, disodium chromoglycate, reference compound], the ED50 in the series on P.C.A. reaction was determined as 105 mg/kg. Besides, the “Percentage inhibition of histamin” value stood at 2% with histamine (1.0 × 10^-5 g/ml test compound), 1% in the series on histamine (1.6 × 10^-4 g/ml test compound) and 4% in the series with histamine (4.0 × 10^-5 g/ml test compound).

`O=C(Cn1c(=O)sc2ccc(Cl)cc21)N1CCNCC1` [Compound A, 3-(1-piperazinyl)carbonylmethyl-5-chloro-2-benzothiazolinone]: the LD50 at 168 h in “Acute toxicity in rat” stood at 734 mg/kg; in “Acute toxicity in mouse”, 219 mg/kg. The results for the ED50 (in the series on P.C.A. reaction; in series [1]; in series [2]) were 9 mg/kg, 56 mg/kg and 50 mg/kg, respectively. Besides, the “Percentage inhibition of histamin” value with histamine (1.0 × 10^-5 g/ml test compound) stood at 14%; in the series with histamine (1.6 × 10^-4 g/ml test compound), 82%; with histamine (4.0 × 10^-5 g/ml test compound), 48%; in the series on histamine (8.0 × 10^-5 g/ml test compound) it was 59%.

Usually ED50 stands for the dose at which the effect has come halfway, by size or by number of responders. What is called LD50 is the dose at which mortality reaches 50%. Low readings indicate greater toxicity, high ones lower toxicity.
